{"source": "paper PMC10137179", "about": "“Assessment of Covalently Binding Warhead Compounds in the Validation of the Cytomegalovirus Nuclear Egress Complex as an Antiviral Target” (Cells, 2023)", "key": {"[1]": {"biological_target": "T1, pUL50–pUL53 interaction (LgBiT::UL53-Flag + SmBiT::UL50-HA) (Human cytomegalovirus, UniProt P16791)", "T1 construct": "expressed in transfected cells; host or cells: 293T", "T1 sequence (P16791 whole entry)": "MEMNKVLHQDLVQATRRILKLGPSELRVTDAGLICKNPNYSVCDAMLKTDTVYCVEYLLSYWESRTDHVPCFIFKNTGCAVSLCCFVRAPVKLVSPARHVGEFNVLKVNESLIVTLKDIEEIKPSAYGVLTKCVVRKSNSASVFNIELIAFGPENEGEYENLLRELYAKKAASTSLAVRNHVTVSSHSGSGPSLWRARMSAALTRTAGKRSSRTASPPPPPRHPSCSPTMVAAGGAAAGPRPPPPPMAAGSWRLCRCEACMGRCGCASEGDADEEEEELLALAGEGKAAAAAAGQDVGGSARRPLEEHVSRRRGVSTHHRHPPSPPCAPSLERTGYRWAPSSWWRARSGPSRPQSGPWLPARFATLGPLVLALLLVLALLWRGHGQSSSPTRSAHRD", "format": "cell-based", "details": "293T cells, 5×, 1× or 0.2× anti-HCMV EC50 levels, full-length LgBiT::UL53-Flag"}, "HCMV AD169-GFP": {"tested_on": "HCMV AD169-GFP", "experiment": "microbe, parasite or virus in culture", "format": "cell-based, human cytomegalovirus (HCMV)", "details": "Human betaherpesvirus 5, AD169, 168 h, clinically relevant warheads, 0.1 µM to 50 µM, AD169-GFP-infected HFFs, 7 d p.i.", "experimental": "Cytotoxicity of the analyzed compounds was determined by the Neutral Red dye uptake assay. A total of 1.35 × 10^5 HFFs per well were seeded in 96-well plates 1 d prior to analysis, cultivated overnight until cells were confluent and then incubated with compounds for 7 days. The assay was performed as described previously using 40 μg/mL Neutral Red (Sigma Aldrich). The quantity of dye incorporation was determined using the Victor X4 microplate reader (PerkinElmer, Waltham, MA, USA) by fluorescence measurement at 560/630 nm for excitation/emission, respectively. To assess antiviral activity of compounds, HFFs seeded in 96-well plates (1.35 × 10^5 HFFs per well) were infected with HCMV AD169-GFP or TB40-IE2-YFP to reach 25–50% infected cells at 7 days post-infection (d p.i.). After incubation with the infectious inoculum for 1.5 h at 37 °C, compounds were added in serial dilutions. At 7 d p.i., cells were fixed for 10 min at room temperature using 10% formalin. Finally, cells were washed once with PBS followed by automated fluorescence quantitation.\nSeeking for a novel group of potential antiviral agents, small molecules with covalent protein-binding activity were investigated. These small molecules, originally developed as kinase inhibitors, carry a so-called warhead moiety as an important functional group, such as the prototype afatinib (Figure 1A, red circle). In this study, a series of newly generated warhead compounds (most of which are the property of B.K./Lead Discovery Center, Dortmund, Germany) were used for an evaluation of putative antiviral and core NEC-inhibitory properties. In a first step, the antiviral activity of warheads was analyzed against HCMV TB40-IE2-YFP (Figure 1B) and AD169-GFP (Figure 1C). To this end, HFFs were infected with either of the two viral strains before the GFP or YFP reporter signals were measured at 7 d p.i. (in parallel, putative compound cytotoxicity was determined by Neutral Red assay). The HCMVs AD169-GFP and TB40-IE2-YFP, based on BAC-derived recombinants of the laboratory strains AD169 and TB40, respectively, were both propagated on HFFs, and the produced stocks were then used as two reporter viruses for the assessement of antiviral drug activity. While strain AD169 is mainly restricted in its tropism to fibroblasts, TB40 tropism can be extended to fibroblasts and epithelial and endothelial cells. Here, the use of two strains was intended to illustrate the assumption that antiviral activity of these warhead compounds may be directed to conserved viral target proteins, thus pointing out a minor impact of strains.\n(A) Chemical structure of a clinically approved prototype of covalently binding warhead inhibitors, […], afatinib/Gilotrif®. The red circle identifies a functionally active α-, β-unsaturated carbonyl group. (B) At 7 d p.i., compounds were analyzed for their cytotoxicity (orange) and antiviral activity (blue) during HCMV infection, using TB40-IE2-YFP as a reporter virus. Cell viability was assessed through Neutral Red staining of uninfected cells. Measurements were performed in quadruplicate (YFP fluorometry) or triplicate (Neutral Red assay), and standard deviations of mean values are given; EC50, CC50 and SI values are indicated accordingly. (C) In a parallel series of analyses, HCMV AD169-GFP was used as another reporter virus representing a second viral strain. […] HCMV AD169-GFP-infected HFFs were treated with 0.1 µM to 50 µM of the compounds (in parallel Neutral Red assay, 0.1 µM to 100 µM), before the signal assessments were performed at 7 d p.i."}}}
{"molecule": "C=CC(=O)N1CCC[C@@H](n2nc(-c3ccc(Oc4ccccc4)cc3)c3c(N)ncnc32)C1", "note": "[ibrutinib]", "values": [{"measurement": "inhibitory effect on NanoBiT interaction signal (in words)", "setting": "[1]", "value": "most prominent, dose-dependent reduction in the measured interaction signal"}, {"measurement": "EC50", "setting": "HCMV AD169-GFP", "value": "16 ± 6", "unit": "µM"}]}
